Marks after values point to notes of the source that are not given here.
Experiments:
[1] = system: H1975 cell lines; experiment: Anti-cancer activity (tumor volume) in H1975 lung cancer xenograft nude mice; type: in vivo, human; conditions: CKD-516 3 mg/kg ip, twice a week for three weeks; for Tumor volume / tumor growth, result in words: FIG. 1, FIG. 2
Experimental: As a human tumor cell line, a lung cancer cell line, i.e., H1975 cell lines were purchased from the American Type Culture Collections (ATCC). One vial of the cell lines was inserted into an RPMI1640 medium (Gibco, 22400) containing a heatinactivated 10% fetal bovine serum (FBS; Gibco, 10082-742), and cultured in a 5% CO2 incubator at 37° C. The resulting cells were washed with PBS, after which a 10-fold dilution of 2.5% Trypsin-EDTA (Gibco, 15090) was added thereto, such that cells were isolated therefrom. Then, centrifugation was performed (at 1,000 rpm for 5 min), after which supernatant thereof was discarded, such that a cell suspension was obtained by means of a new medium. A survival rate was identified with a microscope to make a preparation in an amount of 1.0×10^7 cells/mL.
The five-week old male […] nude mice (Hsd: Athymic Nude-Foxn1^nu) were purchased from Saeron Bio Inc. (Gyeonggi Province in South Korea).
Thus prepared tumor cell lines were subcutaneously (sc) injected by 0.2 ml (2×10^6 cells) into a back of the mice by using a 26-gauge needle syringe. In about three to four weeks after the injection, animals whose tumor sizes reached 170 mm^3 to 220 mm^3 were selected and used for an experiment.
A comparison between a positive control group and groups dosed with a test substance with regard to a negative control group, and a comparison between the positive control group and the groups dosed with a test substance were verified through One-way ANOVA. At this time, assuming that significance was accepted, a post-hoc test was performed with Duncan test, if an equal variance was accepted, and with Dunnett's test, if the equal variance was not accepted. If p-value is 0.05 or less, significance was accepted, and SPSS 10.1, a statistical program in common use, was used.

[2] = system: A-549 cancer cell lines; experiment: Anti-cancer activity (tumor volume) in A-549 lung cancer xenograft Balb/c nude mice; type: in vivo, human; conditions: A549 xenograft, docetaxel 2.5 mg/kg ip once a week, CKD-516 4 mg/kg po daily, eight weeks, FIG. 3, FIG. 4
Excerpt: A-549 cancer cell lines (1×10^7 cells), which are human lung cancer cell lines purchased from the ATCC, were subcutaneously injected into the mice. Particularly, a needle point was inserted into mice in the left side before injecting cancer cells, and moved from side to side to inject the cancer cells and to identify that an administered solution was not leaked out, such that a tumorigenesis was observed. Animals whose tumor sizes reached 100 mm^3 to 250 mm^3 were selected and used for an experiment.
Experimental groups were randomly divided as shown in the table 3 above. • Vehicle: Daily for eight weeks, oral administration; • Docetaxel: 2.5 mg/kg, once a week for eight weeks, intraperitoneal administration; • CKD-516: 4 mg/kg, daily for eight weeks, oral administration; and • CKD-516+Docetaxel: CKD-516 (4 mg/kg, daily for eight weeks, oral administration) to be administered first+Docetaxel (2.5 mg/kg, once a week for eight weeks, intraperitoneal administration).
For the tumor volume, statistical processing was performed by using a statistical processing program (GraphPad PRISM® Version 5.0, GraphPad Software, the U.S.).

[3] = system: H460 cancer cell lines; experiment: Anti-cancer activity (tumor volume) in H460 lung cancer tissue-transplanted Balb/c nude mice; conditions: H460 tumor transplant, paclitaxel 20 mg/kg iv, CKD-516 2.5 mg/kg ip, once a week for three weeks, FIG. 5, FIG. 6
Experimental: The four-week old male Balb/c nude mice were purchased from Central Lab Animal Inc.
In 20 to 25 days later, the mice were subjected to euthanasia by means of cervical vertebral dislocation, after which a solid cancer proliferated in the mice was sterilely isolated therefrom to obtain fresh cancer tissues, from which connective tissues, necrotic tissues, skins, etc. were removed.
The cancer tissues were divided by 50 mg in a sterile state, and subcutaneously transplanted into the mice by using a 16-gauge trocar. In 12 days after the transplantation, the mice whose cancer tissues were proliferated up to a certain size, were selected and used for the experiment.
Paclitaxel was dissolved in an excipient (excipient 2), which was prepared by mixing cremophor, ethanol and saline at a ratio of 1:1:8, and prepared in accordance with the administered dose for each group as shown in the following table 4.
The anti-cancer activity was determined based on a tumor volume. The tumor volume was obtained by measuring a long axis and a short axis of the tumor by means of electronic callipers (CD-15CPX, Mitutoyo Corp., Japan) and calculating measured values according to a following equation (twice a week):
Tumor volume (mm^3)=(Long axis length×Short axis length^2)/2.

[4] = date 4/10, docetaxel 6 mg/kg ip
[5] = date 4/14, docetaxel 6 mg/kg ip
[6] = date 4/17, docetaxel 6 mg/kg ip
[7] = date 4/21, docetaxel 6 mg/kg ip
[8] = date 4/24 (end of experiment), docetaxel 6 mg/kg ip

Row | SMILES | Tumor volume (mm^3), mean ([1]; date 4/7, docetaxel 6 mg/kg ip) | Tumor volume (mm^3), mean [1, 4] | Tumor volume (mm^3), mean [1, 5] | Tumor volume (mm^3), mean [1, 6] | Tumor volume (mm^3), mean [1, 7] | Tumor volume (mm^3), mean [1, 8] | Tumor volume / tumor growth, result in words ([1]; docetaxel 6 mg/kg ip) | Tumor volume / tumor growth, result in words [2] | Tumor volume / tumor growth, result in words [3]
1 | COc1cc(C(=O)c2ccc(-c3csc(NC(=O)[C@@H](N)C(C)C)n3)cc2-n2cncn2)cc(OC)c1OC [CKD-516, (S)—N-(4-(3-(1H-1,2,4-triazole-1-yl)-4-(3,4,5-trimethoxybenzoyl)phenyl)thiazole-2-yl)-2-amino-3-methylbutanamide] | 121.8 mm^3 | 146.3 mm^3 | 321.3 mm^3 | 432.4* mm^3 | 504.9 mm^3 | 790.7*** mm^3 | showed a similar tendency to the group dosed with docetaxel | the tumor did not almost grow | showed a similar tendency to the group dosed with paclitaxel
2 | CC(=O)O[C@@]12CO[C@@H]1C[C@H](O)[C@@]1(C)C(=O)[C@H](O)C3=C(C)[C@@H](OC(=O)[C@H](O)[C@@H](NC(=O)OC(C)(C)C)c4ccccc4)C[C@@](O)([C@@H](OC(=O)c4ccccc4)[C@H]21)C3(C)C [Docetaxel, docetaxel] | 123.4 mm^3 | 178.0 mm^3 | 309.6 mm^3 | 460.5 mm^3 | 500.2*** mm^3 | 513.9*** mm^3 | a growth of the tumor was decreased over time compared to the negative control group, but the tumor volume was continuously increased | no significant difference in a growth rate of the tumor compared to the negative control group | 
3 | CC(=O)O[C@H]1C(=O)[C@@]2(C)[C@H]([C@H](OC(=O)c3ccccc3)[C@]3(O)C[C@H](OC(=O)[C@H](O)[C@@H](NC(=O)c4ccccc4)c4ccccc4)C(C)=C1C3(C)C)[C@]1(OC(C)=O)CO[C@@H]1C[C@@H]2O [paclitaxel] |  |  |  |  |  |  |  |  | a growth of the tumor was decreased over time compared to the negative control group, but the tumor volume was continuously increased

From US20210236468A1, “COMPOSITION FOR PREVENTING OR TREATING CANCER, COMPRISING A VASCULAR DISRUPTING AGENT AND TAXANE COMPOUND” (Chong Kun Dang Pharmaceutical Corp., priority 2018, published 2021)
